Earlier results on 1 compound are cited in US20250241957A1, “INTRA-ERYTHROCYTE DEXAMETHASONE FOR TREATMENT OF ATAXIA-[…]” (priority 2024, published 2025).

In the data set the test system is participants with A-T. Particulars: betamethasone used for two years.

For `C[C@H]1C[C@H]2[C@@H]3CCC4=CC(=O)C=C[C@]4(C)[C@@]3(F)[C@@H](O)C[C@]2(C)[C@@]1(O)C(=O)CO` [betamethasone], the Adrenal suppression result is “documented in all participants”.
